Values quoted from earlier work as cited in patent EP3336085A1, “PROCESS AND INTERMEDIATE FOR THE PREPARATION OF 1-(4-(2-((1-(3,4-DIFLUOROPHENYL)-1H-PYRAZOL-3-YL)METHOXY)ETHYL)PIPERAZIN-1-YL)ETHANONE” (Laboratorios del Dr. Esteve S.A., priority 2016, dated 2018).
Read-outs that look alike come from different tables or passages of the source.

Columns and labels:
sigma-1 (σ1) receptor = sigma-1 (σ1) receptor (Homo sapiens, UniProt Q99720)
Chain of sigma-1 (σ1) receptor (Q99720 whole entry): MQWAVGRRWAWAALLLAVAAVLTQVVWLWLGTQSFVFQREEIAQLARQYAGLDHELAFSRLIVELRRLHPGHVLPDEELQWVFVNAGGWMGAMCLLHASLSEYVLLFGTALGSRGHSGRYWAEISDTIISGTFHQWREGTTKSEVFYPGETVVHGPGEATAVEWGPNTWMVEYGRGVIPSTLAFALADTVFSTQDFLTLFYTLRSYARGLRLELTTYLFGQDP

CC(=O)N1CCN(CCOCc2ccn(-c3ccc(F)c(F)c3)n2)CC1.Cl [1-(4-(2-((1-(3,4-difluorophenyl)-1 H-pyrazol-3-yl)methoxy)ethyl)piperazin-1-yl)ethanone hydrochloride]
sigma-1 (σ1) receptor antagonist selectivity (sigma-1 (σ1) receptor): highly selective | water solubility (pH=2): very soluble | water solubility (pH=7.4): very soluble
